This note sets out measurements from publication PMC8224385, “X-ray screening identifies active site and allosteric inhibitors of SARS-CoV-2 main protease” (Science (New York, N.y.), 2021).

One data set relates to SARS-CoV-2. The experiment in a line: microbe, parasite or virus in culture. In kind it is cell-based. The conditions noted are these: for reduction in infectious particles / antiviral activity (in words): SARS-CoV-2, Vero E6 cells; for reduction in infectious particles: compounds considered antivirally active.
The next data set in a line: in vitro. The conditions noted are these: African green monkey.
Data set [1] in a line: Cell viability of Vero E6 cells (CCK-8 method). The conditions noted are these: African green monkey.
The mark [2] stands for this setting: Severe acute respiratory syndrome coronavirus 2, Vero C1008, SARS-CoV-2 infectious particles, Vero E6 cells, immunofocus assay, read-out: EC50 for the viral titer reduction.
Setting [3] is: Severe acute respiratory syndrome coronavirus 2, Vero C1008, read-out: EC50 for the viral titer reduction.

pEC50: −log10 of the molar value. Where a name gives a salt, the structure may show the parent alone. Read-outs that look alike come from different tables or passages of the source.

For `Cc1ccc(C(=O)C(C)CN2CCCCC2)cc1` (centres unmarked) [tolperisone], in the data set on SARS-CoV-2, the “reduction in infectious particles” value is on record as at least 100 fold. Further, the negative logarithm of the EC50 (pEC50) with SARS-CoV-2 (setting [2]) is 4.72. The compound also showed a CC50 in the data set “in vitro” of over 100 µM.
With PD-168568, in the data set on SARS-CoV-2, the “antiviral activity (in words)” value was “inactive”.
Consider `CCOc1cc2ncc(C#N)c(Nc3ccc(F)c(Cl)c3)c2cc1NC(=O)/C=C/CN(C)C` [pelitinib], for which the “reduction in infectious particles” value in the data set with SARS-CoV-2 is listed as at least 100 fold. Besides, the negative-log EC50 (pEC50) with SARS-CoV-2 (setting [2]) was 5.90. The CC50 in the data set “in vitro” is 14 µM.
With `CCCC[C@@H](C=O)NC(=O)[C@H](CC(C)C)NC(=O)OCc1ccccc1` [calpeptin], the “reduction in infectious particles” value with SARS-CoV-2 was at least 100 fold. For the same compound, in data set [1], the CC50 is over 100 µM.
`O=C1c2ccccc2CCC1CNCCc1ccc(O)cc1` (stereo not drawn) [HEAT, 2-[β-(4-hydroxyphenyl)-ethylaminomethyl]-tetralone]: the negative-log EC50 (pEC50) in the data set with SARS-CoV-2 (setting [2]) was 4.62. The compound also yielded a CC50 in the data set “in vitro” of 55.4 µM.
Consider `c1ccc2nc(N3CCNCC3)ccc2c1` [quipazine maleate], for which, in the data set on SARS-CoV-2 (setting [2]), the pEC50 is 4.50. This compound also gave a CC50 in “in vitro” of over 100 µM.
For `CC(C)c1ccc2c(c1)C(N1CCN(CCO)CC1)Cc1ccc(F)cc1S2` (centres unmarked) [isofloxythepin] the same measures were 5.32 and 17 µM.
Take `O=C(NC1CCNCC1)c1n[nH]cc1NC(=O)c1c(Cl)cccc1Cl` [AT7519, N-(4-piperidinyl)-4-(2,6-dichlorobenzoylamino)-1H-pyrazole-3-carboxamide]: the “reduction in infectious particles” value in the data set on SARS-CoV-2 is at least 100 fold. Also, the pEC50 in the data set with SARS-CoV-2 (setting [3]) was 4.60.
For the compound `CCc1ccc(Cc2ccc3c(c2)[C@]2(OC3)O[C@H](CO)[C@@H](O)[C@H](O)[C@H]2O)cc1` [tofogliflozin], in the data set on SARS-CoV-2, the “antiviral activity (in words)” value is “inactive”.
Regarding `CCc1cc(O)c(Oc2ccc(C(N)=O)cc2F)cc1F` [MUT056399], the “reduction in infectious particles” value in the data set on SARS-CoV-2 is reported as at least 100 fold. Moreover, the negative-log EC50 (pEC50) in the data set on SARS-CoV-2 (setting [2]) is 4.42. Moreover, the CC50 in “in vitro” is over 100 µM.
Consider `O=C1Nc2ccccc2C2(CCN(CCc3ccc(C(F)(F)F)cc3)CC2)O1` [RS-102895], for which the negative-log EC50 (pEC50) in the data set with SARS-CoV-2 (setting [3]) was 4.70. In data set [1], this compound yielded a CC50 of 55 µM.
As to `O=c1n(CC2CO2)c(=O)n(CC2CO2)c(=O)n1CC1CO1` (centres unmarked) [triglycidyl isocyanurate], the “reduction in infectious particles” value in the data set with SARS-CoV-2 was at least 100 fold. Also, the pEC50 with SARS-CoV-2 (setting [2]) is 4.52. Also, the CC50 in data set [1] was over 100 µM.
For `CC(C(O)c1ccc(O)cc1)N1CCC(Cc2ccccc2)CC1` (centres unmarked) [ifenprodil] the same measures were at least 100 fold, 4.33 and over 100 µM.
